{"source": "patent US20240325574A1", "about": "“EXTRADOMAIN B FIBRONECTIN TARGETING PEPTIDES AND DERIVATIVES FOR CANCER IMAGING AND THERAPY” (MOLECULAR THERANOSTICS, LLC, priority 2023, published 2024)", "key": {"EDB fragment": {"biological_target": "EDB fragment (Homo sapiens, UniProt P02751)", "sequence (P02751 1271-1359 limits assumed)": "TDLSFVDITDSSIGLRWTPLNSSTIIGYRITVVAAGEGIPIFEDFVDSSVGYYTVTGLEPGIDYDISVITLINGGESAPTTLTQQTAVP", "settings": "background, earlier work (U.S. Pat. No. 10,653,801); cited from earlier work"}, "HSC3 HNC xenograft [1]": {"tested_on": "HSC3 HNC xenograft", "test": "Topical staining of exposed HSC3 HNC xenograft tumor, fluorescence imaging", "format": "in vivo, mouse", "settings": "1 drop of 40 μM applied topically, rinsed with PBS after 2 minutes", "description": "(§1) FIGS. 3A and 3B provide images showing (A) fluorescence images of the organ tissues of the mice received IV injection of ZD2-S0456, showing ZD2-S0456 binding to HSC3 HNC xenograft. 1: kidney; 2: heart; 3: spleen; 4: brain; 5: muscle; 6: tumor; 7: liver; 8: lung. […] (B) Fluorescence image of mice bearing HSC3 HNC xenografts topically stained with PBS or ZD2-Cy5.5.\n(§2) The specific staining of ZD2-S0456 to human HNC tumors comparing to normal tissues was investigated after intravenous injection of ZD2-S0456 in mouse xenograft models (FIG. 3). Mice were injected with 10 nmol/mouse ZD2-S0456 or PBS and euthanized 60 minutes post injection to collect tumor tissue and major organs. […] Furthermore, ZD2-S0456 can identify the tumor margin by topical staining of mouse xenograft tumors. The skin atop the HSC3 HNC xenograft tumor was removed to expose the tumor while the mouse was under anesthesia. Then 1 drop of 40 μM ZD2-Cy5.5 was topically applied to the tumor and surrounding tissues, which was rinsed with PBS after 2 minutes."}, "HSC3 HNC xenograft [2]": {"tested_on": "HSC3 HNC xenograft", "test": "Fluorescence imaging of tumor and major organs after intravenous injection in HSC3 HNC xenograft mice", "settings": "10 nmol/mouse IV, 60 minutes post injection, ex vivo tissue imaging; no signal after PBS", "description": "as §1, §2"}, "[3]": {"tested_on": "human breast cancer MDA-MB-231 TNBC xenograft", "test": "Fluorescence imaging after intravenous injection in MDA-MB-231 TNBC xenograft mice", "format": "in vivo", "settings": "10 nmol/mouse IV, imaged 60 minutes post injection", "experimental": "FIG. 4 provide a fluorescence image of mouse bearing human breast cancer MDA-MB-231 TNBC xenograft after IV injection of ZD2-S0456, showing ZD2-S0456 staining to the tumor.\nThe specific staining of ZD2-S0456 to human TNBC tumors comparing to normal tissues was investigated after intravenous injection of ZD2-S0456 in mouse xenograft models (FIG. 4). Mouse were injected with 10 nmol/mouse ZD2-S0456 and imaged 60 minutes post injection."}}, "note": "Where no end group is shown, it is not given here. S0456 = NIR dye, conjugated to the peptide N-terminus", "data": [{"substance": "TVRTSAD [ZD2]", "values": [{"measurement": "Binding affinity to the EDB fragment", "setting": "EDB fragment", "value": "moderate binding affinity"}]}, {"substance": "ZD2-Cy5.5: ZD2 targeted fluorescence dye (Cy5.5) (TVRTSAD; also: Cy5.5 dye conjugated)", "values": [{"measurement": "Fluorescence signal on tumor vs surrounding tissues after topical staining", "setting": "HSC3 HNC xenograft [1]", "value": "strong fluorescence signal on the tumor but not the surrounding tissues"}]}, {"substance": "ZD2-S0456: ZD2 peptide with NIR dye S0456 conjugated to its N-terminus (S0456-TVRTSAD-OH)", "values": [{"measurement": "Fluorescence signal in the tumor", "setting": "HSC3 HNC xenograft [2]", "value": "strong signal in the tumor"}, {"measurement": "Fluorescence signal in the tumor compared to surrounding normal tissues", "setting": "[3]", "value": "stronger signal in the tumor"}]}]}
